# Source: PMC8162404, “Proteomimetic surface fragments distinguish targets by function” (Chemical Science, 2020)
# Assays:
# [1] = biological target: T1, CaM (Bos taurus, UniProt P62157); assay: Pull-down assay with immobilized protein and LSM libraries; format: binding, bovine; conditions: H14 library; 1:2 stoichiometry assumed; read-out: Surface mapping KD (apparent)
# T1 construct: made in house; host or cells: E. coli BL21 (DE3)
# In short: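 His-tagged protein immobilized on Co-NTA resin, equilibrated 30 min at room temperature with LSM sublibraries (64 members, […]), equimolar protein to total probe. CaM buffer: 20 mM HEPES pH 7.4, 150 mM NaCl, 5 mM CaCl2. Bound fractions from HPLC-MS loss of unbound probe versus protein-free resin control; Kd derived.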
# [2] = biological target: T2, Gal-1 (Homo sapiens, UniProt P09382); assay: as above; format: binding; conditions: H14 library; 1:1 binding assumed; read-out: Surface mapping KD (apparent)
# T2 construct: made in house; host or cells: E. coli BL21(DE3)
# T2 sequence (P09382 whole entry): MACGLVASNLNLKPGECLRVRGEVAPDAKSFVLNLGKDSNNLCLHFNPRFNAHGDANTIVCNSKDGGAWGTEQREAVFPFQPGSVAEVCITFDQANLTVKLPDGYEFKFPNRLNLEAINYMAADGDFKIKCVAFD
# In short: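 His-tagged protein immobilized on Co-NTA resin (64 µM) in 20 mM HEPES pH 7.4, 150 mM NaCl, equilibrated 30 min at room temperature with foldamer LSM sublibraries at equimolar total concentration. Unbound fractions quantified by HPLC-MS versus protein-free resin control; apparent KD assumes 1:1 binding.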
# [3] = biological target: T3, S100A4 (Homo sapiens, UniProt P26447); assay: as above; format: binding; conditions: H14 library; 1:1 binding assumed; read-out: Surface mapping KD (apparent)
# T3 construct: made in house; host or cells: Escherichia coli BL21(DE3)
# T3 sequence (P26447 whole entry): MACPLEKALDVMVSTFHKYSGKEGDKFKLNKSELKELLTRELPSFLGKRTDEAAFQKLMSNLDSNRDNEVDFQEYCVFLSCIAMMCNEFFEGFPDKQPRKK
# In short: (§1)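 Buffers were HEPES pH 7.4 with 150 mM NaCl, plus 1 mM TCEP and 1 mM CaCl2 (50 mM HEPES) for S100A4 and S100B, 1 mM TCEP for Gal-1, and no additive for RecQ-WH. Immobilized protein at 64 µM was equilibrated 30 min with the LSM sublibrary, and unbound probes were measured by LC-MS.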
# [4] = biological target: T4, S100B (Homo sapiens, UniProt P04271); assay: as above; format: binding; conditions: H14 library; 1:1 binding assumed; read-out: Surface mapping KD (apparent)
# T4 construct: made in house; host or cells: Escherichia coli BL21(DE3)
# T4 sequence (P04271 1-92): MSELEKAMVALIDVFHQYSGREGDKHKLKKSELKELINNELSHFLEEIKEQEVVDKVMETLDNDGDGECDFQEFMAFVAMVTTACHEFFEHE
# In short: as §1
# [5] = biological target: T4, S100B; assay: Competition pull-down with native ligand RSK1 (689–735); format: binding; conditions: H14 library; competitor peptide 200 µM; read-out: Surface mapping KD (apparent), competition
smiles,measurement,setting,value
CC[C@H](C)[C@@H](CC(=O)N[C@H]1CCCC[C@@H]1C(N)=O)NC(=O)[C@H]1CCCC[C@@H]1NC(=O)[C@H]1CCCC[C@@H]1NC(=O)C[C@H](C)NC(=O)[C@H]1CCCC[C@@H]1N [H14 AI],Kd,[1],13 µM
same,Kd,[2],248 µM
same,Kd,[3],7 µM
same,Kd,[4],108 µM
same,Kd,[5],238 µM
C[C@@H](CC(=O)N[C@H]1CCCC[C@@H]1C(=O)N[C@H]1CCCC[C@@H]1C(=O)N[C@H](CC(=O)N[C@H]1CCCC[C@@H]1C(N)=O)Cc1ccc(O)cc1)NC(=O)[C@H]1CCCC[C@@H]1N [H14 AY],Kd,[1],119 µM
same,Kd,[2],353 µM
same,Kd,[3],221 µM
same,Kd,[4],192 µM
same,Kd,[5],304 µM
CC[C@H](C)[C@@H](CC(=O)N[C@H]1CCCC[C@@H]1C(=O)N[C@H]1CCCC[C@@H]1C(=O)N[C@@H](C)CC(=O)N[C@H]1CCCC[C@@H]1C(N)=O)NC(=O)[C@H]1CCCC[C@@H]1N [H14 IA],Kd,[1],16 µM
same,Kd,[2],247 µM
same,Kd,[3],7 µM
same,Kd,[4],108 µM
same,Kd,[5],296 µM
CC[C@H](C)[C@@H](CC(=O)N[C@H]1CCCC[C@@H]1C(=O)N[C@H]1CCCC[C@@H]1C(=O)N[C@@H](CCCNC(=N)N)CC(=O)N[C@H]1CCCC[C@@H]1C(N)=O)NC(=O)[C@H]1CCCC[C@@H]1N [H14 IR],Kd,[1],20 µM
same,Kd,[3],103 µM
same,Kd,[4],37 µM
same,Kd,[5],174 µM
CC[C@H](C)[C@@H](CC(=O)N[C@H]1CCCC[C@@H]1C(=O)N[C@H]1CCCC[C@@H]1C(=O)N[C@@H](CO)CC(=O)N[C@H]1CCCC[C@@H]1C(N)=O)NC(=O)[C@H]1CCCC[C@@H]1N [H14 IS],Kd,[1],142 µM
same,Kd,[2],266 µM
same,Kd,[3],79 µM
same,Kd,[4],382 µM
same,Kd,[5],456 µM
CC(C)C[C@@H](CC(=O)N[C@H]1CCCC[C@@H]1C(=O)N[C@H]1CCCC[C@@H]1C(=O)N[C@@H](CCCCN)CC(=O)N[C@H]1CCCC[C@@H]1C(N)=O)NC(=O)[C@H]1CCCC[C@@H]1N [H14 LK],Kd,[1],27 µM
same,Kd,[3],312 µM
same,Kd,[4],82 µM
same,Kd,[5],316 µM
CC(C)C[C@@H](CC(=O)N[C@H]1CCCC[C@@H]1C(=O)N[C@H]1CCCC[C@@H]1C(=O)N[C@@H](CC(N)=O)CC(=O)N[C@H]1CCCC[C@@H]1C(N)=O)NC(=O)[C@H]1CCCC[C@@H]1N [H14 LN],Kd,[1],294 µM
same,Kd,[2],314 µM
same,Kd,[3],433 µM
same,Kd,[4],409 µM
same,Kd,[5],254 µM
CC(C)C[C@@H](CC(=O)N[C@H]1CCCC[C@@H]1C(=O)N[C@H]1CCCC[C@@H]1C(=O)N[C@@H](CCCNC(=N)N)CC(=O)N[C@H]1CCCC[C@@H]1C(N)=O)NC(=O)[C@H]1CCCC[C@@H]1N [H14 LR],Kd,[1],14 µM
same,Kd,[2],116 µM
same,Kd,[3],138 µM
same,Kd,[4],82 µM
same,Kd,[5],167 µM
CC(C)C[C@@H](CC(=O)N[C@H]1CCCC[C@@H]1C(=O)N[C@H]1CCCC[C@@H]1C(=O)N[C@@H](CO)CC(=O)N[C@H]1CCCC[C@@H]1C(N)=O)NC(=O)[C@H]1CCCC[C@@H]1N [H14 LS],Kd,[1],99 µM
same,Kd,[2],498 µM
same,Kd,[3],195 µM
same,Kd,[4],379 µM
same,Kd,[5],371 µM
CC(C)C[C@@H](CC(=O)N[C@H]1CCCC[C@@H]1C(=O)N[C@H]1CCCC[C@@H]1C(=O)N[C@H](CC(=O)N[C@H]1CCCC[C@@H]1C(N)=O)[C@@H](C)O)NC(=O)[C@H]1CCCC[C@@H]1N [H14 LT],Kd,[1],39 µM
same,Kd,[2],336 µM
same,Kd,[3],66 µM
same,Kd,[4],162 µM
same,Kd,[5],294 µM
CSCC[C@@H](CC(=O)N[C@H]1CCCC[C@@H]1C(=O)N[C@H]1CCCC[C@@H]1C(=O)N[C@@H](C)CC(=O)N[C@H]1CCCC[C@@H]1C(N)=O)NC(=O)[C@H]1CCCC[C@@H]1N [H14 MA],Kd,[1],16 µM
same,Kd,[2],385 µM
same,Kd,[3],72 µM
same,Kd,[4],380 µM
same,Kd,[5],382 µM
CSCC[C@@H](CC(=O)N[C@H]1CCCC[C@@H]1C(N)=O)NC(=O)[C@H]1CCCC[C@@H]1NC(=O)[C@H]1CCCC[C@@H]1NC(=O)C[C@@H](NC(=O)[C@H]1CCCC[C@@H]1N)C(C)C [H14 VM],Kd,[1],26 µM
same,Kd,[3],5 µM
same,Kd,[4],93 µM
same,Kd,[5],229 µM
